Tests used:
mTOR signaling = experiment: Western blot of mTOR signaling (P-S6K phosphorylation) in 4T1 cells in tryptophan-deficient DMEM; format: cell-based, mouse; settings: 3 h, vs free IND
4T1 cells [1] = experiment: ICD screening of chemo agents in 4T1 cells (CRT expression, HMGB1 release); format: cell-based, mouse; settings: multi-parameter cellular screening
Excerpt: One possible approach is to use chemotherapy to induce immunogenic cell death or ICD.

[2] = system: KPC pancreatic cancer cells; experiment: Induction of ICD marker CRT (flow cytometry) and HMGB1 release (ELISA) in cultured KPC pancreatic cancer cells; format: cell-based, mouse; settings: 24 h; for induction of the ICD marker CRT: DOX 20 μM, OX 500 μM, activated DOX (DACHPt) 500 μM, flow cytometry; for HMGB1 release: ELISA
Experimental: (§1) FIG. 6. Panel A) Flow cytometry experiment showing the induction of the ICD marker, CRT, in cultured KPC pancreatic cancer cells in the presence of PBS, DOX (20 μM), OX (500 μM), and activated DOX (a.k.a. DACHPt, 500 μM) for 24 h. HMBG1 release was measured using ELISA. Panel B) Animal experimentation using 2 rounds of vaccination one week apart, followed by injecting live KPC cells SC on the contralateral side. The details of the animal vaccination experiment are provided in the methods section. Tumors were collected on day 26 for size measurement and IHC analysis. Panel C) Tumor size measurement on the contralateral side. Panel D) Explanted tumor at the contralateral side. Panel E) Spaghetti curves to show KPC tumor growth in the contralateral flank. Panel F) Tumor collection was performed after euthanizing the animal to conduct IHC. IHC staining of CD8 and Foxp3 T cells was used to calculate CD8/FoxP3 T cells ratio in each group. *p<0.05; **p<0.01
ICD is a modified form of apoptosis that can be used to initiate an effective immune response against endogenous tumor antigens (Kroemer et al. (2013) Ann. Rev. Immunol., 31: 51-72).^1 Since this model was 1st proposed against the backdrop of a select number of cancer drugs (Id.), we focused on the use of OX, because it is FDA-approved for PDAC treatment. As a component of the FOLFIRINOX regimen (in combination with irinotecan, 5-FU and folinic acid). For comparison, we also included the anthracycline antibiotic, DOX, as a positive control and cisplatin (Cis) as a negative control for the screening of PDAC cell lines, using cell surface CRT expression (Obeid et al. (2017) Nat. Med., 13(1): 54-61; Casares et al. (2005) J. Exp. Med. 202(12): 1691-1701; Fucikova et al. (2011) Canc. Res. 71(14): 4821-4833; Tesniere et al. (2010) Oncogene, 29(4): 482-491; Galluzzi et al. (2012) Oncogene, 31(15): 1869-1883; Martins et al. (2011) Oncogene, 30(10): 1147-1158). CRT is an endoplasmic reticulum (ER) stress protein that translocates to the surface membrane of cancer cells undergoing ICD (Obeid et al. (2017) Nat. Med., 13(1): 54-61; Fucikova et al. (2011) Canc. Res. 71(14): 4821-4833). Screening for CRT expression was performed in murine KPC cells, derived from a spontaneous tumor that developed in a transgenic Kras^LSL-G12D/+/Trp53^LSL-R172H/+/Pdx-1-Cre (KPC) mouse (Hingorani et al. (2005) Cancer cell, 7(5): 469-483).
The KPC model recapitulates many of disease features of human PDAC, including oncogene expression, development of a robust cancer stroma, extensive local invasion and distant metastases (Tones et al. (2013) PloS one, 8(11): e80580; Tseng et al. (2010) Clin. Canc. Res. 16(14): 3684-3695). DOX and OX and activated DOX induced the ICD marker CRT in cultured KPC pancreatic cancer cells (FIG. 6, panel A). […]

KPC tumor = experiment: Vaccination with drug-treated dying KPC cells, live KPC challenge on contralateral side; format: in vivo, mouse; settings: for KPC tumor growth in the contralateral flank (spaghetti curves) / KPC tumor size on the contralateral side: 2 rounds of vaccination one week apart; for KPC tumor size on the contralateral side: tumors collected on day 26
Experimental: as §1, with “Panel A) Flow cytometry experiment showing the induction of the ICD marker, CRT, in cultured KPC pancreatic cancer cells in the presence of PBS, DOX (20 μM), OX (500 μM), and activated DOX (a.k.a.” left out, “IHC.” for “IHC. IHC staining of CD8 and Foxp3 T cells was used to calculate CD8/FoxP3 T cells ratio in each group. *p<0.05; **p<0.01”
Animal experiments were performed using two rounds of vaccination one week apart, followed by injecting live KPC cells SC on the contralateral side (FIG. 6, panel B). Tumors were collected on day 26 for size measurement and IHC analysis.
Tumor collection was performed after euthanizing the animals to conduct IHC. IHC staining of CD8 and Foxp3 T cells was used to calculate CD8/FoxP3 T cell ratio in each group (see, e.g., FIG. 6, panel F).

[3] = PK characteristics of free IND; settings: in vivo
Solubility and log P = format: physicochemical
[4] = Determination of MTD doses in normal mice; settings: mouse, in vivo, single IV administration
Experimental: FIG. 26. Panel A) Determination of MTD doses for free MTX and liposomal MTX in normal mice. MTD doses for free MTX and liposomal MTX were 3 and 15 mg/kg for single IV administration. Due to the high MTD of liposomal MTX, we tested the efficacy of the MTX liposome at low dose (1 mg/Kg×3 times) and high dose (3 mg/Kg×3 times). Panel B) Pilot tumor size measurement in 4T1 orthotopic tumor-bearing mice (n=6) receiving IV free drug or MTX-only liposome. For free drug treatment, we have included 2 two schedules namely single IV at 3 mg/kg at Day 8 or IV injections at 1 mg/kg at Day 8, 11 and 14. Since MTX liposome has a 5× higher MTD dose, the tumor mice received single IV at 3 mg/kg at Day 8 or IV injections at Day 8, 11 and 14.

4T1 cells [5] = experiment: CRT induction by liposomes in 4T1 cells (flow cytometry)
Excerpt: Panel B) All the particles were fully characterized abiotically and biotically.

[6] = cited from earlier work

## 16:0 LysoPC-indoximod [IND-PL]
mTOR signaling
  effect on mTOR signaling (phosphorylation of P-S6K): enhanced effect

## O=c1[nH]cc(F)c(=O)[nH]1 [5-FU, 5-fluorouracil]
4T1 cells [1]
  ICD induction (calreticulin expression, release of HMGB1): failed to induce the same effect

## COc1cccc2c1C(=O)c1c(O)c3c(c(O)c1C2=O)C[C@@](O)(C(=O)CO)C[C@@H]3O[C@H]1C[C@H](N)[C@H](O)[C@H](C)O1 [DOX, doxorubicin]
4T1 cells [1]
  ICD induction (calreticulin expression, release of HMGB1): can induce
[2]
  induction of the ICD marker CRT: induced
  HMGB1 release: increased
KPC tumor
  KPC tumor growth in the contralateral flank (spaghetti curves): decrease
  KPC tumor size on the contralateral side: significant reduction

## Cn1cc(C[C@@H](N)C(=O)O)c2ccccc21 [Free IND, 1-methyl-D-tryptophan]
[3]
  PK characteristics: unfavorable PK characteristics
Solubility and log P
  water solubility: relatively water insoluble

## O=C1c2c(O)ccc(O)c2C(=O)c2c(NCCNCCO)ccc(NCCNCCO)c21 [MTX, mitoxantrone]
4T1 cells [1]
  ICD induction (calreticulin expression, release of HMGB1): can induce
[4]
  MTD: 3 mg/kg
4T1 cells [5]
  CRT induction / ICD response in 4T1 cells (FIG. 31 panel B): generation of an ICD response

## O=C1[O][Pt]2([NH][C@@H]3CCCC[C@H]3[NH]2)[O]C1=O [OX, oxaliplatin]
[2]
  induction of the ICD marker CRT: induced
  HMGB1 release: increased
KPC tumor
  KPC tumor growth in the contralateral flank (spaghetti curves): decrease
  KPC tumor size on the contralateral side: significant reduction
KPC tumor; local and systemic tumor sites
  CD8+/Foxp3+ ratio: capable of increasing

## N.N.[Cl][Pt][Cl] [cisplatin]
4T1 cells [1]
  ICD induction (calreticulin expression, release of HMGB1): failed to induce the same effect

## NS(=O)(=O)NCCNc1nonc1C(=NO)Nc1ccc(F)c(Br)c1 [epacadostat]
[6]
  solubility in ethanol: > 20 mg/mL

## CC(=O)O[C@H]1C(=O)[C@@]2(C)[C@H]([C@H](OC(=O)c3ccccc3)[C@]3(O)C[C@H](OC(=O)[C@H](O)[C@@H](NC(=O)c4ccccc4)c4ccccc4)C(C)=C1C3(C)C)[C@]1(OC(C)=O)CO[C@@H]1C[C@@H]2O [paclitaxel]
4T1 cells [1]
  ICD induction (calreticulin expression, release of HMGB1): ICD inducer

Reference: US11433143B2, “Nano-enabled immunotherapy in cancer” (The Regents of the University of California, priority 2017, dated 2022)
